# Laboratory results taken from PubChem BioAssay (NCI).
#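 Five concentrations, 48 hours, 96-well plates. TGI is the concentration that stops growth completely.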
# How the values were obtained:
# Assay in all cases: growth of human tumour cells (NCI), 48 h
# SF-539 CNS = tested on: SF-539 CNS
# SK-MEL-2 melanoma = tested on: SK-MEL-2 melanoma
# SF-295 CNS = tested on: SF-295 CNS
# OVCAR-4 ovarian = tested on: OVCAR-4 ovarian
# SN12C renal = tested on: SN12C renal
# SK-MEL-28 melanoma = tested on: SK-MEL-28 melanoma
# SW-620 colon = tested on: SW-620 colon
# HT29 colon = tested on: HT29 colon
# LOX IMVI melanoma = tested on: LOX IMVI melanoma
# 786-0 renal = tested on: 786-0 renal
# RXF 393 renal = tested on: RXF 393 renal
# IGROV1 ovarian = tested on: IGROV1 ovarian
SMILES,TGI (SF-539 CNS),TGI (SK-MEL-2 melanoma),TGI (SF-295 CNS),TGI (OVCAR-4 ovarian),TGI (SN12C renal),TGI (SK-MEL-28 melanoma),TGI (SW-620 colon),TGI (HT29 colon),TGI (LOX IMVI melanoma),TGI (786-0 renal),TGI (RXF 393 renal),TGI (IGROV1 ovarian)
COC(=O)c1ccc(/C=C/c2cc(O)ccc2O)cc1,6.65 µM,> 31.6 µM,> 100 µM,15.9 µM,18.8 µM,43.4 µM,18.6 µM,> 100 µM,9.39 µM,16.9 µM,6.59 µM,9.42 µM
CN(C)c1ccc(/C=c2/c3ccccc3n3c2c2c([n+]3C)CCCC2)cc1,1.42 µM,0.59 µM,0.653 µM,4.58 µM,1.59 µM,2.06 µM,10.5 µM,1.61 µM,1.39 µM,3.24 µM,0.616 µM,1.82 µM
C/C=C/C(CC(O)(C(F)(F)F)C(F)(F)F)=N/NC(N)=S,> 10 µM,> 10 µM,> 10 µM,> 10 µM,> 10 µM,> 10 µM,> 10 µM,> 10 µM,> 10 µM,> 10 µM,> 10 µM,> 10 µM
O=C(Nc1ccccc1)c1cc(S(=O)(=O)NC2=NC(c3ccccc3)c3cc(Cl)ccc3N2)c(SSc2cc(Cl)c(C(=O)Nc3ccccc3)cc2S(=O)(=O)NC2=NC(c3ccccc3)c3cc(Cl)ccc3N2)cc1Cl (stereo unspecified),> 100 µM,> 100 µM,> 100 µM,> 100 µM,> 100 µM,> 100 µM,> 100 µM,> 100 µM,> 100 µM,> 100 µM,> 100 µM,> 100 µM
COc1cccc(C(=O)Oc2ccc(OS(=O)(=O)c3ccc(C)cc3)cc2)c1C#N,> 100 µM,> 100 µM,> 100 µM,> 100 µM,> 100 µM,> 100 µM,> 100 µM,> 100 µM,> 100 µM,> 100 µM,> 100 µM,> 100 µM
Cc1[nH]c(=O)nc2nc3ccc(Cl)cc3c(NCCNCCO)c12,20.6 µM,28.3 µM,30.2 µM,26.2 µM,19.8 µM,31.8 µM,19.6 µM,21.9 µM,21 µM,21.2 µM,28.5 µM,25.4 µM
C[C@H]1[C@H]2[C@H]3CC[C@@H]4[C@@]5(C)CC[C@H](O)C(C)(C)[C@@H]5CC[C@@]4(C)[C@]3(C)C[C@H](O)[C@@]2(C)C[C@H]2O[C@]21C,39 µM,41.2 µM,37.4 µM,> 100 µM,37.8 µM,36.9 µM,70.1 µM,30.2 µM,39.1 µM,45.1 µM,35.1 µM,71.1 µM
O=[N+]([O-])c1ccc(CN(CCCl)OCCCl)cc1,> 100 µM,> 100 µM,> 100 µM,> 100 µM,> 100 µM,> 100 µM,> 100 µM,> 100 µM,> 100 µM,> 100 µM,> 100 µM,> 100 µM
